# Columns and labels:
# [1] = tested on: conditioned taste avoidance; test: Consumption test of lithium-paired saccharin solution (conditioned taste avoidance); type: in vivo; conditions: pretreatment 5 mg/kg prior to conditioning; 6 hr consumption test on day following final TR test, non-deprived rats
# Experimental: (§1) [drawing 3] • In Experiment 1 were used 29 male rats and in Experiment 2 were used 24 male Sprague-Dawley rats (Charles River Labs, St. Constant, Quebec), which weighed 290-350 gm on the conditioning day. They were individually housed in stainless steel hanging cages in a colony room kept at 21° C. on a 12:12 hr light:dark schedule with the lights on at 07.00 h. Throughout the experiment, the rats were maintained on ad-lib Purina Rat Chow and water. The procedures were approved by the Wilfrid Laurier University Animal Care Committee according to the guidelines of the Canadian Council on Animal Care. • b. The rats were surgically implanted with intra-oral cannulae as described by Parker, L. A. Learn Motiv., 13, 281-303 (1982). The surgical anesthesia preparation included administration of 0.4 mg/kg atropine solution i.p. 15 min prior to ketamine (75 mg/kg, i.p.) combined with xylazine (10 mg/kg, i.p.) which was dissolved in sterile water and administered at a volume of 1 ml/kg. […] On this trial, the water bottles were replaced with tubes containing the saccharin solution and the amounts consumed over a 6 hr period of drinking were recorded. • i. Taste reactivity scoring: A rater blind to the experimental conditions scored the videotapes on two occasions in slow motion (⅕ speed) using the Observer (Noldus, NL) event-recording program on a PC computer. […]
# [2] = tested on: lithium-induced nausea (conditioned rejection reactions); test: Taste Reactivity (TR) test: lithium-induced conditioned rejection reactions to saccharin solution; type: in vivo, rats; conditions: for establishment of conditioned rejection reactions: pretreatment 5 mg/kg ip 30 min prior to conditioning trial (saccharin-lithium pairing), versus vehicle pretreatment
# Experimental: as §1, with “ml/kg. On each of three subsequent days during recovery from surgery, the cannulae were flushed with a chlorhexidine rinse (Novlosan; 0.1% chlorhexidine) to prevent infection. • c. […] The rats were randomly assigned to independent groups on the basis of the pretreatment drug and the conditioning drug. In Experiment 1, the groups were as follows: CBD-lithium (n=8), CBD-saline (n=6), Vehicle-lithium (n=8), Vehicle-saline (n=7). In Experiment 2, the groups were as follows: CBD-DMH-lithium (n=6), CBD-DMH-saline (n=6), Vehicle-lithium (n=6), Vehicle-saline (n=6). […] The order of the test trials was counterbalanced among the rats in each group. • d.” for “ml/kg.”
# CB1 receptor = CB1 receptor (Homo sapiens, UniProt P21554); conditions: cited from earlier work
# [3] = tested on: lithium-induced nausea (conditioned rejection reactions); conditions: previously reported, rats; cited from earlier work
# [4] = tested on: conditioned taste avoidance; conditions: previously reported, as pretreatment agent; cited from earlier work
# Chain of CB1 receptor (P21554 whole entry): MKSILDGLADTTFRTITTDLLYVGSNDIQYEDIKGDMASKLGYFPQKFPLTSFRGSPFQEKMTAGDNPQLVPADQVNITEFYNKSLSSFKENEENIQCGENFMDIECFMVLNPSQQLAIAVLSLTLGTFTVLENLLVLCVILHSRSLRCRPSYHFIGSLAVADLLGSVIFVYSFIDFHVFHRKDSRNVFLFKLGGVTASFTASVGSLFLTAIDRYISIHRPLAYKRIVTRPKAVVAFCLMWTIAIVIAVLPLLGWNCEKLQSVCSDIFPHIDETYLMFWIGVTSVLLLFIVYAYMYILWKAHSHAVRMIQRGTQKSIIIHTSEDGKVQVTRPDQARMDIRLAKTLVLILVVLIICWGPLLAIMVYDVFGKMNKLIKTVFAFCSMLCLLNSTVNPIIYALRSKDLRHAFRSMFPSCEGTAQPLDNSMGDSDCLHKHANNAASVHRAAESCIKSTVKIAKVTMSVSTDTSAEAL
Compound,strength of avoidance response (ml saccharin solution consumed) [1],"expression of previously established conditioned rejection reactions ([2]; 5 mg/kg ip 30 min prior to TR test trial, lithium-conditioned male Sprague-Dawley rats, versus vehicle test trial)",establishment of conditioned rejection reactions [2],affinity for the CB1 receptor (CB1 receptor),establishment and expression of conditioned rejection reactions [3],establishment of conditioned taste avoidance in a consumption test [4]
"C=C(C)[C@@H]1CCC(C)=C[C@H]1c1c(O)cc(CCCCC)cc1O [CBD, cannabidiol]",did not modulate the strength of the avoidance response,attenuated the expression of previously established conditioned rejection reactions,attenuated the establishment of conditioned rejection reactions,,,
"C=C(C)C1CCC(C)=CC1c1c(O)cc(C(C)(C)CCCCCC)cc1O (stereo not drawn) [CBD-DMH, cannabidiol-dimethyl heptyl]",did not modulate the strength of the avoidance response,,interfered with the establishment of conditioned rejection reactions,relatively weak affinity,,
CCCCCc1cc(O)c2c(c1)OC(C)(C)[C@@H]1CCC(C)=C[C@@H]21 [THC],,,,,interfered with the establishment and the expression of conditioned rejection reactions,
Cc1nccn1CC1CCc2c(c3ccccc3n2C)C1=O (stereo not drawn) [ondansetron],,,,,interfered with the establishment and the expression of conditioned rejection reactions,did not interfere with the establishment of conditioned taste avoidance

# — patent publication US8119697B2 (Yissum Research Development Company of the Hebrew …, priority 2002, dated 2012)
